Patent US20240228488A1 (TAKEDA PHARMACEUTICAL COMPANY LIMITED, priority 2021, published 2024)

Key:
[1] = molecular target: human activated kallikrein enzyme (Homo sapiens, UniProt P03952); test: Plasma kallikrein inhibition, fluorogenic PFR-AMC substrate, 500 pM activated kallikrein format; format: biochemical; conditions: 500 pM activated kallikrein, 300 uM PFR-AMC, 30 min preincubation, 10 min reaction; read-out: Primary Dose Response Assay: Average EC50
Summary of the method: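 High-enzyme format of the fluorogenic peptide assay, with EC50 taken from AMC signal: 500 pM activated kallikrein, 300 uM Pro-Phe-Arg-AMC, 30 min compound preincubation and 10 min reaction, all at room temperature, pH 7.5.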

plasma kallikrein = molecular target: T1, plasma kallikrein (Homo sapiens, UniProt P03952); test: Neat human plasma assay, FXIIa contact pathway-activated, PFR-AMC substrate; format: biochemical; conditions: citrated human plasma 78% final, 10 nM human FXIIa, 100 μM PFR-AMC; read-out: Human Plasma Assay: IC90
T1 construct: from tissue
Summary of the method: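 Compound inhibition of plasma kallikrein measured as PFR-AMC (100 μM) cleavage rate over 5 min at room temperature in 78% citrated human plasma activated with 10 nM FXIIa (Tris pH 7.5 buffer). IC50/IC90 from 4-parameter fit of rate versus inhibitor concentration.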

Chain of human activated kallikrein enzyme (P03952 391-638 limits assumed): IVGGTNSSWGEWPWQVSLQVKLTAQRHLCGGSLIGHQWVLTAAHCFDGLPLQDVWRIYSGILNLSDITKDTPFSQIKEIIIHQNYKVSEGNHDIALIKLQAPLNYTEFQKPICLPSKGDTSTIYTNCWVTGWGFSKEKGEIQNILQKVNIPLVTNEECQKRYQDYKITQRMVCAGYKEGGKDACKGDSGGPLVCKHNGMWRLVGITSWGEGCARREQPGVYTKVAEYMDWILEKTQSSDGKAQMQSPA
Chain of human activated kallikrein enzyme (P03952 20-390 partner limits assumed): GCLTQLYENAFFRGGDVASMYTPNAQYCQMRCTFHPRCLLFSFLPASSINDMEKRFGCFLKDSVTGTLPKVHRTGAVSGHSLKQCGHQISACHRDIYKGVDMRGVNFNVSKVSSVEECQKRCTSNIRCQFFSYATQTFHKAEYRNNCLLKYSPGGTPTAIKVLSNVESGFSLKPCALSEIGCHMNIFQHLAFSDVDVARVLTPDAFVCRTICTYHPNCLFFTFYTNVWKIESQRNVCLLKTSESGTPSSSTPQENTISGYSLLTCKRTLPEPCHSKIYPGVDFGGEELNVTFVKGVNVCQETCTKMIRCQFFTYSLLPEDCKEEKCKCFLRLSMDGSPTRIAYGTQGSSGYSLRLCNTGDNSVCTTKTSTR
T1 sequence (P03952 391-638 limits assumed): as the sequence (P03952 391-638 limits assumed) above
T1 sequence (P03952 20-390 partner limits assumed): as the sequence (P03952 20-390 partner limits assumed) above

| Compound | EC50 [1] [nM] | IC90 (plasma kallikrein) [nM] |
| --- | --- | --- |
| O=C(Nc1cc(NCc2cn3cc(C4CC4)cc(C4CNC4)c3n2)ccn1)[C@H]1C[C@@H]1c1cccc(Cl)c1 [Example 284, (1S,2S)—N-(4-(((8-(azetidin-3-yl)-6-cyclopropylimidazo[1,2-a]pyridin-2-yl)methyl)amino)pyridin-2-yl)-2-(3-chlorophenyl)cyclopropane-1-carboxamide] | < 1 | < 400 |
| O=C(Nc1cc(NCc2cn3cc(C4CC4)cc(C4(F)COC4)c3n2)ncn1)[C@H]1C[C@@H]1c1cccc(Cl)c1 (racemic) [Example 64, rac-(1S*,2S*)-2-(3-chlorophenyl)-N-(6-(((6-cyclopropyl-8-(3-fluorooxetan-3-yl)imidazo[1,2-α]pyridin-2-yl)methyl)amino)pyrimidin-4-yl)cyclopropane-1-carboxamide] | 1 to 10 | > 48000 |
| O=C(O)CN1CCN(c2cc(C3CC3)cn3cc(CNc4ccnc(NC(=O)[C@H]5C[C@@H]5c5cccc(Cl)c5)c4)nc23)CC1 [Example 602, 2-(4-(2-(((2-((1S,2S)-2-(3-chlorophenyl)cyclopropane-1-carboxamido)pyridin-4-yl)amino)methyl)-6-cyclopropylimidazo[1,2-a]pyridin-8-yl)piperazin-1-yl)acetic acid] | < 1 | < 400 |
| Cc1ccnc([C@H]2C[C@@H]2C(=O)Nc2cc(OCc3cn4cc(C5CC5)cc(N5CC(=O)N(CCOCc6ccccc6)C5=O)c4n3)ncn2)n1 (racemic) [Example 31, rac-(1S*,2S*)—N-(6-((8-(3-(2-(benzyloxy)ethyl)-2,4-dioxoimidazolidin-1-yl)-6-cyclopropylimidazo[1,2-a]pyridin-2-yl)methoxy)pyrimidin-4-yl)-2-(4-methylpyrimidin-2-ylcyclopropane-1-carboxamide] | 1 to 10 | 10000 to 48000 |
| O=C(Nc1cc(NCc2cn3cc(C4CC4)cc(N4CC(=O)N(CC(F)(F)F)C4=O)c3n2)ccn1)[C@H]1C[C@@H]1c1cccc(Cl)c1 [Example 512, (1S,2S)-2-(3-chlorophenyl)-N-(4-(((6-cyclopropyl-8-(2,4-dioxo-3-(2,2,2-trifluoroethyl)imidazolidin-1-yl)imidazo[1,2-a]pyridin-2-yl)methyl)amino)pyridin-2-yl)cyclopropane-1-carboxamide] | 1 to 10 | 1500 to 10000 |
| Cc1ccnc([C@H]2C[C@@H]2C(=O)Nc2cc(NCc3nc4c(N5CC(=O)N(C)C5=O)cc(C5CC5)cn4c3F)ncn2)n1 [Example 379, (1S,2S)-N-(6-(((6-cyclopropyl-3-fluoro-8-(3-methyl-2,4-dioxoimidazolidin-1-yl)imidazo[1,2-a]pyridin-2-yl)methyl)amino)pyrimidin-4-yl)-2-(4-methylpyrimidin-2-yl)cyclopropane-1-carboxamide] | < 1 | 400 to 1500 |
| Cc1ccnc([C@H]2C[C@@H]2C(=O)Nc2cc(N(C)Cc3cn4cc(C5CC5)cc(N5CC(=O)N(CCO)C5=O)c4n3)cc(C3CC3)n2)n1 [Example I-637, (1S,2S)—N-(6-cyclopropyl-4-(((6-cyclopropyl-8-(3-(2-hydroxyethyl)-2,4-dioxoimidazolidin-1-yl)imidazo[1,2-a]pyridin-2-yl)methyl)(methyl)amino)pyridin-2-yl)-2-(4-methylpyrimidin-2-yl)cyclopropane-1-carboxamide] | < 1 | < 400 |
| Cc1ccnc([C@H]2C[C@@H]2C(=O)Nc2cc(Cc3cn4cc(C5CC5)cc(N5CC(=O)N(C)C5=O)c4n3)ncn2)n1 (racemic) [Example 620, rac-(1S*,2S*)—N-(6-((6-cyclopropyl-8-(3-methyl-2,4-dioxoimidazolidin-1-yl)imidazo[1,2-a]pyridin-2-yl)methyl)pyrimidin-4-yl)-2-(4-methylpyrimidin-2-yl)cyclopropane-1-carboxamide] | 1 to 10 | 400 to 1500 |
| Cc1ccnc([C@H]2C[C@@H]2C(=O)Nc2cc(NCc3cn4cc(C5CC5)cc(N5CC(=O)N(C)C5=O)c4n3)c(C(F)(F)F)nn2)n1 [Example I-640, (1S,2S)—N-(5-(((6-cyclopropyl-8-(3-methyl-2,4-dioxoimidazolidin-1-yl)imidazo[1,2-a]pyridin-2-yl)methyl)amino)-6-(trifluoromethyl)pyridazin-3-yl)-2-(4-methylpyrimidin-2-yl)cyclopropane-1-carboxamide] | < 1 | < 400 |
| Cc1ccnc([C@H]2C[C@@H]2C(=O)Nc2cc(NCc3cn4cc(C5CC5)cc(N5CC(=O)N(C)C5=O)c4n3)ncn2)n1 (single isomer, unassigned) [Example I-260] | < 1 | < 400 |
| Cc1ccnc([C@H]2C[C@@H]2C(=O)Nc2cc(NCc3cn4cc(C5CC5)cc(N5CC(=O)N(C)C5=O)c4n3)nc(CF)n2)n1 (racemic) [Example 353, rac-(1S*,2S*)—N-(6-(((6-cyclopropyl-8-(3-methyl-2,4-dioxoimidazolidin-1-yl)imidazo[1,2-a]pyridin-2-yl)methyl)amino)-2-(fluoromethyl)pyrimidin-4-yl)-2-(4-methylpyrimidin-2-yl)cyclopropane-1-carboxamide] | < 1 | 400 to 1500 |
| Cc1ccnc([C@H]2C[C@@H]2C(=O)Nc2cc(N[C@H](C)c3cn4cc(C5CC5)cc(N5CC(=O)N(C)C5=O)c4n3)nc(C)n2)n1 (single isomer, unassigned) [Example 456] | < 1 | < 400 |
| Cc1ccnc([C@H]2C[C@@H]2C(=O)Nc2cc(NCc3cn4cc(C5CC5)cc(N5CC(=O)N(C)C5=O)c4n3)ncn2)c1 (racemic) [Example 393, rac-(1S*,2S*)-N-(6-(((6-cyclopropyl-8-(3-methyl-2,4-dioxoimidazolidin-1-yl)imidazo[1,2-a]pyridin-2-yl)methyl)amino)pyrimidin-4-yl)-2-(4-methylpyridin-2-yl)cyclopropane-1-carboxamide] | < 1 | 400 to 1500 |
| Cc1ccnc([C@H]2C[C@@H]2C(=O)Nc2nc(C)nc(N(C)Cc3cn4cc(C5CC5)cc(N5CC(=O)NC5=O)c4n3)n2)n1 (racemic) [Example 524, rac-(1S*,2S*)-N-(4-(((6-cyclopropyl-8-(2,4-dioxoimidazolidin-1-yl)imidazo[1,2-a]pyridin-2-yl)methyl)(methyl)amino)-6-methyl-1,3,5-triazin-2-yl)-2-(4-methylpyrimidin-2-yl)cyclopropane-1-carboxamide] | < 1 | 400 to 1500 |
| O=C(Nc1cc(NCc2cn3cc(C4CC4)cc(C(O)C4CNC4)c3n2)ccn1)[C@H]1C[C@@H]1c1cccc(Cl)c1 (stereo partly drawn) [Example 135, (1S,2S)—N-(4-(((8-(-azetidin-3-yl(hydroxy)methyl)-6-cyclopropylimidazo[1,2-a]pyridin-2-yl)methyl)amino)pyridin-2-yl)-2-(3-chlorophenyl)cyclopropane-1-carboxamide] | < 1 | < 400 |
| Cc1ccnc([C@H]2C[C@@H]2C(=O)Nc2cc(NCc3cn4cc(C5CC5)cc(N5CC(=O)N(CC(=O)O)C5=O)c4n3)ncn2)n1 [Example 465] | < 1 | 400 to 1500 |
| O=C(Nc1cc(NCc2cn3cc(C4CC4)cc(N4CCN5CCC4C5)c3n2)ncn1)[C@H]1C[C@@H]1c1cccc(Cl)c1 (stereo partly drawn) [Example I-11, (1S,2S)-N-(6-(((8-(1,4-diazabicyclo[3.2.1]octan-4-yl)-6-cyclopropylimidazo[1,2-a]pyridin-2-yl)methyl)amino)pyrimidin-4-yl)-2-(3-chlorophenyl)cyclopropane-1-carboxamide] | 1 to 10 | 1500 to 10000 |
| Cc1ccnc([C@H]2C[C@@H]2C(=O)Nc2cc(N[C@H](C)c3cn4cc(C5(F)CC5)cc(N5CC(=O)N(C)C5=O)c4n3)ncn2)n1 [Example 424, (1S,2S)-N-(6-(((R)-1-(6-(1-fluorocyclopropyl)-8-(3-methyl-2,4-dioxoimidazolidin-1-yl)imidazo[1,2-a]pyridin-2-yl)ethyl)amino)pyrimidin-4-yl)-2-(4-methylpyrimidin-2-yl)cyclopropane-1-carboxamide] | < 1 | 400 to 1500 |
| O=C(Nc1cc(NCc2cn3cc(C4CC4)cc(-c4ccc[nH]c4=O)c3n2)ncn1)[C@H]1C[C@@H]1c1cccc(Cl)c1 [Example 305, (1S,2S)-2-(3-chlorophenyl)-N-(6-(((6-cyclopropyl-8-(2-oxo-1,2-dihydropyridin-3-yl)imidazo[1,2-a]pyridin-2-yl)methyl)amino)pyrimidin-4-yl)cyclopropane-1-carboxamide] | 1 to 10 | 1500 to 10000 |
| Cc1ccnc([C@H]2C[C@@H]2C(=O)Nc2cc(NCc3cn4cc(C5CC5)cc(N5CCCC5=O)c4n3)ncn2)n1 [Example 377, (1S,2S)-N-(6-(((6-cyclopropyl-8-(2-oxopyrrolidin-1-yl)imidazo[1,2-a]pyridin-2-yl)methyl)amino)pyrimidin-4-yl)-2-(4-methylpyrimidin-2-yl)cyclopropane-1-carboxamide] | < 1 | 400 to 1500 |
| CC1(C)CN(c2cc(C3CC3)cn3cc(CNc4cc(NC(=O)[C@H]5C[C@@H]5c5cccc(Cl)c5)ncn4)nc23)C(=O)O1 [Example I-199, (1S,2S)-2-(3-chlorophenyl)-N-(6-(((6-cyclopropyl-8-(5,5-dimethyl-2-oxooxazolidin-3-yl)imidazo[1,2-a]pyridin-2-yl)methyl)amino)pyrimidin-4-yl)cyclopropane-1-carboxamide] | 1 to 10 | 1500 to 10000 |
| O=C(Nc1cc(NCc2cn3cc(C4CC4)cc(CO)c3n2)ccn1)[C@H]1C[C@@H]1c1cccc(Cl)c1 [Example 99, (1S,2S)-2-(3-chlorophenyl)-N-(4-(((6-cyclopropyl-8-(hydroxymethyl)imidazo[1,2-a]pyridin-2-yl)methyl)amino)pyridin-2-yl)cyclopropane-1-carboxamide] | < 1 | 400 to 1500 |
